Source: patent publication US20150231199A1, “PEPTIDES AND THEIR USES” (priority 2012, published 2015)
Values after ≈ are worked out from the molar mass of the structure shown. Read-outs that look alike come from different tables or passages of the source. Positions of bridges follow the written chain, without caps; N, C: chain ends. Residues, ends and D or L forms follow the SMILES beside them. Chains are numbered I, II in the order given. *: point of attachment. Octanoyl = CCCCCCCC(=O)*

What was measured:
[1] = test system: Klebsiella pneumoniae DM4299; type: cell-based
[2] = test system: Escherichia coli ATCC27922; type: cell-based
in vitro [3] = type: cell-based; conditions: human
Procedure: Cells were plated at a density of 10,000 cells per well in a 96-well opaque white plate (SPL Life Sciences Inc. Korea). Test compounds of various concentrations and controls were added to appropriate wells such that the final volume is 100 μl in each well. After 4 hours of exposure to the test compounds, the plates were removed from 37° C. incubator and equilibrated to 22° C. for 30 minutes. One hundred microliters of CellTiter-Glo reagent (Promega Inc. USA) was added to each well and the ATP assay was performed according to manufacturer's instructions. Luminescence was assessed using a micro-plate reader (Tecan Infinite 200 Pro, Switzerland). The cells exposed to 1% Triton X-100 were used as a positive control. The percent cell viable of each compound was determined using the formula below (L=Luminescence detected):
% Viability=[(Lnegative controls)−(Lexperiments)]/[(Lnegative controls)−(Lpositive controls)]×100

Pseudomonas aeruginosa = type: cell-based
Outline: (§1)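 MIC by CLSI broth macro-dilution: two-fold serial dilutions of peptides in cation-adjusted Mueller Hinton broth, inoculum about 5×10^5 CFU/mL. Read after 24 h incubation at 35° C. Strains: S. aureus DM4001, MRSA DM9808, P. aeruginosa ATCC23155.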

[4] = test system: Methicillin-resistant Staphylococcus aureus (MRSA); type: cell-based
Outline: as §1

Staphylococcus aureus = type: cell-based
Outline: as §1

[5] = In vivo topical (corneal) toxicity test; conditions: C57BL6, mouse, topical or ocular, mice, 5 times/day for 4 days, read-out: Tolerate concentration
Procedure: (§2) Wild type C57BL6 (6-8 weeks old) (20-30 gram weigh) mice purchased from National University of Singapore were used for this study. All animals were utilized after 1 week acclimatization and put in air conditioned rooms with controlled temperature (23±2° C.), 12 hours light-dark cycle and humidity (55-60%). All animals were conducted in compliance with the Association for Research in Vision and Ophthalmology (ARVO) statement for the Use of Animals in Ophthalmic, and Vision Research, the guide for the Care and Use of laboratory animals (National Research Council) and under the supervision of Singhealth Experimental Medical Centre (SEMC). To investigate the corneal toxicity, three normal and healthy wild type mice had been chosen randomly and treated with 1 mg/ml and 3 mg/ml of C8V2D in 10 mM PBS. C8V2D was applied topically 5 times/day for 4 days. Cornea clarity had been checked by slit lamp microscopy for everyday follow-up to day 4 after application. To study the acute systemic toxicity, C8V2D was administrated via intravenous and intraperitoneal routes. Two mice have been chosen for each route and moitored carefully through 24 hours to observe and record any mortality, morbidity or toxicity signs. Gross necropsy would be done on any mortality or moribund animal.

[6] = In vivo acute systemic toxicity test; conditions: C57BL6, mouse, mice, read-out: Tolerate concentration
Procedure: as §2

[7] = test system: red blood cells (RBCs) of New Zealand white rabbits; test: in vitro; type: cell-based, rabbit; conditions: red cells of rabbit, 1 h
in vitro [8] = type: cell-based; conditions: human; remark: listed apart in the source
Procedure: The cytotoxicity of individual compounds screened was determined by the lactate dehydrogenase (LDH) assay. In brief, human corneal fibroblast cells were plated at a density of 10,000 cells per well in a 96-well opaque white plate (SPL Life Sciences Inc). Test compounds of various concentrations and controls were added to appropriate wells such that the final volume is 100 μl in each well. After 4 hours of exposure to the test compounds, the plates were removed from 37° C. incubator and equilibrated to 22° C. for 30 minutes. One hundred microliters of Cyto-TOX One reagent (Promega Inc. USA) was added to each well and the LDH assay was performed according to manufacturer's instructions. Fluorescence was assessed at an excitation wavelength of 560 nm and an emission wavelength of 590 nm using a micro-plate reader (Tecan Infinite 200 Pro, Switzerland). The cells exposed to 1% Triton X-100 were used as a positive control and treated as maximum releasing of LDH. The percent specific cytotoxicity of each compound was determined using the formula below (I=intensity):
% Cytotoxicity=[(Iexperiments)−(Inegative controls)]/[Ipositive controls)−(Inegative controls)]×100

Q: For `CCCCCCCC(=O)N[C@@H](CCCNC(=N)N)C(=O)NCC(=O)N[C@@H](CCCNC(=N)N)C(=O)N[C@@H](CCCCN)C(=O)N[C@H](C(=O)N[C@H](C(=O)N[C@@H](CCCNC(=N)N)C(=O)N[C@@H](CCCNC(=N)N)C(=O)NCCCC[C@H](NC(=O)[C@H](CCCNC(=N)N)NC(=O)[C@H](CCCNC(=N)N)NC(=O)[C@@H](NC(=O)[C@@H](NC(=O)[C@H](CCCCN)NC(=O)[C@H](CCCNC(=N)N)NC(=O)CNC(=O)[C@H](CCCNC(=N)N)NC(=O)CCCCCCC)C(C)C)C(C)C)C(=O)N[C@@H](CCCCN)C(=O)O)C(C)C)C(C)C` [Peptide C8-V2D, (C7H15—CO—NH—RGRKVVRR)2KK] (I: Octanoyl-RGRKVVRRKK-OH / II: Octanoyl-RGRKVVRR; amide I:9-II:C), which MIC [1] is on record?
A: 2.46 µM (≈ 6.26 µg/mL)

Q: And the MIC [2]?
A: 4.92 µM (≈ 12.5 µg/mL)

Q: And the CC50 at 4 h (in vitro [3])?
A: > 2000 µM

Q: And the MIC (Pseudomonas aeruginosa)?
A: 2.46 µM (≈ 6.26 µg/mL)

Q: What about the MIC [4] of the same molecule?
A: 1.23 µM (≈ 3.13 µg/mL)

Q: What about the MIC (Staphylococcus aureus) of the same molecule?
A: 2.46 µM (≈ 6.26 µg/mL)

Q: What about the MTD at 96 h [5] of the same molecule?
A: ≥ 3 mg/kg

Q: And the MTD at 24 h ([6]; Intravenous (i.v.))?
A: 6.25 mg/kg

Q: And the MTD at 24 h ([6]; ip, Intraperitoneal (i.p.))?
A: 100 mg/kg

Q: What about the HC10 [7] of the same molecule?
A: >2000 µg/mL

Q: What about the CC50 at 4 h (in vitro [8]) of the same molecule?
A: > 3000 µM
